pIC50: −log10 of the molar value. Like-named read-outs stand apart in the source and are kept apart here.

What is called bioavailability is the share of a dose that reaches the circulation, judged against a reference dose that is usually intravenous. High values mean good availability, low ones poor availability. In general, Tmax refers to the time at which the peak concentration occurs. The term inhibition denotes the drop in the measured response relative to a control, in per cent. By % Inhibition is commonly meant the percentage by which the read-out fell short of the control.

For one data set, the system named is seminal vesicles. The data set can be described thus: Anti-androgenic action on testosterone-stimulated growth of the seminal vesicles of castrated mice. The data set is classed as in vivo, mouse. The settings on record: 7 days, castrated mice with testosterone propionate. As to the method:
The function and the size of accessory reproductive glands (prostate and seminal vesicles) depend on androgens. In castrated animals, a growth of these organs is induced by the administration of androgen. Simultaneous treatment with anti-androgens inhibits this growth in a dose-dependent manner. For the examination of test substances, the mice were castrated. On the same day, treatment with testosterone propionate (0.03 mg/mouse) and the test substances (1× daily 10 or 30 mg/kg p.o. in benzyl benzoate-castor oil or ethanol/peanut oil (10:90)) was formulated. The treatment was carried out over 7 days and at the end of the test, the weights of the seminal vesicles and prostate were determined. The inhibition of the seminal vesicle growth, in percent, was calculated in reference to the control groups (with and without testosterone). As a reference substance, cyproterone acetate (30 mg/kg s.c. and p.o.) was used.

A further data set addresses T1, androgen receptor (Homo sapiens, UniProt P10275, T878A).
T1 construct: Destabilization of AR in LNCaP Cells by Test Substances; endogenous in cells; host or cells: LNCaP (human prostate cell line)
T1 sequence (P10275 1-920 T878A): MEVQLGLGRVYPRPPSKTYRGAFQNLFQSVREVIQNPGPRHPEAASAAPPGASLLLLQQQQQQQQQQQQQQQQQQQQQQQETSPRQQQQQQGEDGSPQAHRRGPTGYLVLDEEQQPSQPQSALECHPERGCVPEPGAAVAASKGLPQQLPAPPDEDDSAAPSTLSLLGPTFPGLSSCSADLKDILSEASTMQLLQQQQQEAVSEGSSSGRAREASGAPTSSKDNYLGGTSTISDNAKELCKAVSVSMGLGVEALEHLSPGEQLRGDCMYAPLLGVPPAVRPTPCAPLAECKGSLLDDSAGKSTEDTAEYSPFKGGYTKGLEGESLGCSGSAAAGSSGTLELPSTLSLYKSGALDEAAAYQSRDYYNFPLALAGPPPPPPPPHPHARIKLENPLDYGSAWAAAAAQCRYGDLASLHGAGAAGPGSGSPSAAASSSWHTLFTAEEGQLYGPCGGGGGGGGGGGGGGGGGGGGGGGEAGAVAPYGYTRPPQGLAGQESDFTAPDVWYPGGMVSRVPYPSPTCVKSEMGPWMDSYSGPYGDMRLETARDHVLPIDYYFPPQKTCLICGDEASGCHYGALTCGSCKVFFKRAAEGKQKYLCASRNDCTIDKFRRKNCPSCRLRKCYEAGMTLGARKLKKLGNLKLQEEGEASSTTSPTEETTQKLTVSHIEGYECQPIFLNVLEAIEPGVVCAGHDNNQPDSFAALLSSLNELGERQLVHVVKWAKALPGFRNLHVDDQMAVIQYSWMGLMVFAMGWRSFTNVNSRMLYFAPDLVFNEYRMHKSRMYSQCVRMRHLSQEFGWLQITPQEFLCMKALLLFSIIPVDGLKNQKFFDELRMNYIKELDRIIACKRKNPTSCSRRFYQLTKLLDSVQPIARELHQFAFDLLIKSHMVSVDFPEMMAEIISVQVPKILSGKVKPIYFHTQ
The format is cell-based. The settings on record: LNCaP cells, 48 h, 10 μM, % of DMSO control.

A short description of data set [1]: Pharmacokinetics in rats after intravenous and peroral administration. The data set is classed as in vivo. The settings on record: rat, serum; for Vd / clearance: intravenous; for Vd: read-out: Distribution Volume Vdss; for clearance: read-out: Systemic Serum Clearance CL; for Tmax: read-out: Absorption Tmax. An excerpt:
Model 4: Pharmacokinetics in Rats After Intravenous and Peroral Administration
The pharmacokinetic properties of the compounds according to the invention were studied in Examples 1: 4-[4,4-dimethyl-5-oxo-3-[8-(pyrrolidin-1-yl)octyl]-2-thioxoimidazolidin-1-yl]-2-(trifluoromethyl)benzonitrile and 11: 4-[3-[8-[(2S)-2-(hydroxymethyl)pyrrolidin-1-yl]octyl]-4,4-dimethyl-5-oxo-2-thioxoimidazolidin-1-yl]-2-(trifluoromethyl)benzonitrile.

For the next data set, the system named is LNCaP cells. Description: Inhibition of the proliferation of LNCaP cells (crystal violet assay). The format is cell-based, human. The settings on record: for pIC50: 7 to 8 days. As to the method:
For the proliferation assay, 6000 LNCaP cells/well (Horoszewicz et al. Cancer Res. 1983, 43, 1809–1817) in a microtiter plate (96-well) in 50 μl of RPMI1640 medium are grown with 5% CCS and cultivated as in Model 1. After 24 hours, the cells receive 50 μl of 2×-concentrated test substance, diluted in culture medium. The solvent concentration is 0.5% DMSO. After 4 days, the cells receive another 100 μl of 1×-concentrated test substance, diluted in culture medium. After 7 to 8 days, the proliferation rate of the cells is determined by means of crystal violet assay (Gillies et al. Anal. Biochem. 1986, 159, 109–113). To determine the antagonism, the substance treatment is performed in the presence of […] of R1881 (1:1000 dilution of ethanolic solution). Control cells receive only 0.5% DMSO. For the agonism, the cells are treated only with test substance (without R1881).

Where [2] appears, read: iv, read-out: Half-Life i.v. T1/2 (converted).
Where [3] appears, read: po, read-out: Half-Life p.o. T1/2 (converted).
[4] abbreviates: Homo sapiens, LNCaP, read-out: % Inhibition at 1 μM, 1 μM test substance, compared to cell growth in the presence of 0.1 nmol of R1881.
The mark [5] stands for this setting: Homo sapiens, LNCaP, read-out: IC50 inhibition of the proliferation of LNCaP cells, in the presence of 0.1 nmol of R1881.

As to `CC(=O)O[C@]1(C(C)=O)CC[C@H]2[C@@H]3C=C(Cl)C4=CC(=O)[C@@H]5C[C@@H]5[C@]4(C)[C@H]3CC[C@@]21C` [CPA, 17-(acetyloxy)-6-chloro-1β,2β-dihydro-3′H -cyclopropa[1,2]pregna-1,4,6-triene-3,20-dione, reference compound], the “% Inhibition of MSB Growth” value in the data set with seminal vesicles (30 mg/kg s.c.) turned out to be 85%.

For `CC1(C)C(=O)N(c2ccc(C#N)c(C(F)(F)F)c2)C(=S)N1CCCCCCCCN1CCC[C@H]1CO` [Example 11, 4-[3-[8-[(2S)-2-(Hydroxymethyl)pyrrolidin-1-yl]octyl]-4,4-dimethyl-5-oxo-2-thioxoimidazolidin-1-yl]-2-(trifluoromethyl)benzonitrile], the “AR Content at 10 μM” value on androgen receptor worked out at 50%. Further, in data set [1], the Vd was 11 L/kg and the clearance was 20 mL/min/kg. For the same compound, in data set [1] (setting [2]), the half-life is 5.7 h. In addition, in data set [1] (po), the bioavailability turned out to be 65% and the Tmax turned out to be 7 h. Also, the half-life in data set [1] (setting [3]) is 8 h. The inhibition at 1 µM in the data set with LNCaP cells (setting [4]) was found to be 102%. Also, the pIC50 with LNCaP cells (setting [5]) was 7.89. Moreover, in the data set on seminal vesicles (30 mg/kg p.o., 1× daily), the “% Inhibition of MSB Growth” value was 95%.

For `CC1(C)C(=O)N(c2ccc(C#N)c(C(F)(F)F)c2)C(=S)N1CCCCCCCCN1CCCC1` [Example 1, 4-[4,4-Dimethyl-5-oxo-3-[8-(pyrrolidin-1-yl)octyl]-2-thioxoimidazolidin-1-yl]-2-(trifluoromethyl)benzonitrile], the “AR Content at 10 μM” value on androgen receptor came to 63%. Moreover, in data set [1], the Vd stood at 37 L/kg. The clearance in data set [1] was determined as 76 mL/min/kg. The half-life in data set [1] (setting [2]) was 5.6 h; in data set [1] (setting [3]), 6.1 h. In data set [1] (po), the bioavailability came out at 72%. Further, the Tmax in data set [1] (po) was 5 h. For the same compound, in the data set on LNCaP cells (setting [4]), the inhibition at 1 µM is 98%. Further, the pIC50 in the data set on LNCaP cells (setting [5]) is 7.35. Moreover, the “% Inhibition of MSB Growth” value worked out at 82% in the data set on seminal vesicles (10 mg/kg p.o., 1× daily) and 99% in the data set with seminal vesicles (30 mg/kg p.o., 1× daily).

For the compound `CC1(C)C(=O)N(c2ccc(C#N)c(C(F)(F)F)c2)C(=S)N1CCCCCCCCN1CCC[C@@H]1CO` [Example 10, 4-[3-[8-[(2R)-2-(Hydroxymethyl)pyrrolidin-1-yl]octyl]-4,4-dimethyl-5-oxo-2-thioxoimidazolidin-1-yl]-2-(trifluoromethyl)benzonitrile], the inhibition at 1 µM in the data set on LNCaP cells (setting [4]) was 101%. The pIC50 with LNCaP cells (setting [5]) is above 8.00. Further, in the data set with seminal vesicles (10 mg/kg p.o., 1× daily), the “% Inhibition of MSB Growth” value stood at 87%.

For the compound `CC(O)(CS(=O)(=O)c1ccc(F)cc1)C(=O)Nc1ccc(C#N)c(C(F)(F)F)c1` (centres unmarked) [Bicalutamide, N-[4-Cyano-3-(trifluoromethyl)phenyl]-3-[(4-fluorophenyl)sulfonyl]-2-hydroxy-2-methylpropanamide, reference compound], the inhibition at 1 µM in the data set with LNCaP cells (Homo sapiens, LNCaP, 1 μM test substance, compared to cell growth in the presence of 0.1 nmol of R1881, read-out: % Inhibition at 1 μM) is 85%. In addition, the “% Inhibition of MSB Growth” value is recorded as 82% with seminal vesicles (30 mg/kg p.o., 1× daily) and 86% in the data set with seminal vesicles (30 mg/kg s.c.).

`CC1(C)C(=O)N(c2ccc(C#N)c(C(F)(F)F)c2)C(=S)N1CCCCCCCCN1CCCC1.Cl` [Example 2, 4-[4,4-Dimethyl-5-oxo-3-[8-(pyrrolidin-1-yl)octyl]-2-thioxoimidazolidin-1-yl]-2-(trifluoromethyl)benzonitrile hydrochloride]: the “AR Content at 10 μM” value at androgen receptor is recorded as 50%. Further, in the data set with LNCaP cells (1 μM test substance, compared to cell growth in the presence of 0.1 nmol of R1881), the “% Inhibition at 1 μM” value is listed as 100%. Moreover, the pIC50 in the data set on LNCaP cells (read-out: IC50 inhibition of the proliferation of LNCaP cells, in the presence of 0.1 nmol of R1881, hydrochloride) is 7.39. Further, in the data set on seminal vesicles (30 mg/kg p.o., 1× daily), the “% Inhibition of MSB Growth” value is 95%.
